In US10137081B2, “Device and method for sustained release of antipsychotic medications” (DELPOR, INC., priority 2012, dated 2018):

What was measured:
[1] = for period of constant, zero-order in vitro release of risperidone: FIGS. 4, 5
Experimental: Singly capped devices were weighed and tared on a conventional laboratory balance. The open end of each device was fitted with a small funnel, and each salt form of drug to be tested was loaded into the reservoir in small (about 10-about 50 mg) portions. When necessary, each added portion of solid was tamped down to the base of the reservoir prior to the next addition. This process was repeated until a specific loading target was met (generally about 250-500 mg). The filled reservoir was then capped with either a closed PEEK cap or a cap configuration identical to that used on the first end of the device, vide supra.
The assembled devices were weighed and then loaded into a custom-built vacuum hydrator. The air space within each device was evacuated by placing the device in a vacuum (<0.5 torr) for no less than 30 min. The devices were then back-filled with phosphate-buffered saline (pH 7.4) applied with a back pressure of 5-10 psi above atmospheric pressure for at least one hour. The devices were then retrieved from the hydration apparatus, wiped with a tissue to absorb any external fluid, weighed, and transferred to petri dishes containing buffer for the drug output assay, vide infra. The success of the hydration step was determined by the measuring the increase in mass before and after hydration.
The dish was placed in an incubator with pCO2 adjusted to give an average buffer pH of 7.4. Approximately once per day, the dishes were retrieved from the incubator. Each device was transferred to a new dish containing an equivalent amount of buffer and then returned to the incubator.
The retained receiving buffer samples were acidified with 3.0 mL of 0.1 M HCl and allowed to stand for approximately 1 hour. An aliquot of each sample (generally 100 μL) was transferred to a single well of a UV-transparent 96 well plate along with 100 μL of 0.1 M HCl diluent. After plating, the absorbance of each well was recorded at 270 nm using a Molecular Devices spectrophotometer. The absorbances were converted into concentrations (and ultimately output mass per day) by comparison to a standard curve. Samples that absorbed outside of the linear range of the instrument were diluted and re-read, as appropriate.

[2] = In vivo pharmacokinetics, device as subcutaneous implant in rats
Experimental: Six male Sprague Dawley rats (Charles River; Hollister, Calif.) of an initial weight of approximately 250-280 grams were administered a device as a subcutaneous implant. This study complied with all applicable sections of the Final Rules of the Animal Welfare Act regulations (9 CFR), the Public Health Service Policy on Humane Care and Use of Laboratory Animals, the Guide for the Care and Use of Laboratory Animals. […] All animals were weighed and the hair was clipped and removed from the dorsal area prior to dose administration. All animals were anesthetized with isoflurane via an induction chamber and maintained in the appropriate plane of anesthesia using isoflurane inhalant (1-3%) and a vaporizer. The dorsal area of the animal was prepared for implantation using appropriate surgical scrub and ethanol. Aseptic technique was used during implantation. A small incision was made in the skin and a single device implant gently placed in the dorsal subcutaneum using a sterile implanter tool. Following administration, the skin incision was closed with sterile suture. The animals were given an appropriate dose of analgesia (see table below) and allowed to recover.
The animals were euthanized following the blood collection.
Body weights were measured on the day of test article administration and weekly thereafter.
Blood volumes of approximately 0.8 to 1.0 mL were collected at each time point, placed into Vacutainer tubes containing EDTA, and kept on wet ice until processing. For preparation of plasma, tubes were mixed by gentle inversion several times and centrifuged under refrigeration (approximately 2-8° C.) for approximately 15 minutes at approximately 2800 rpm (˜1000×g). Plasma was split into two approximately equal aliquots and transferred to labeled screw-top tubes for storage, and stored at approximately (−60° C. to −80° C.) until shipment to the analytical lab.
Using aseptic technique, the implant site was opened up and a photo of the implant field was taken. Blood draws were made four hours and 24 hours after implant removal. Any observations were recorded.
Bioanalytical measurements of active moiety (risperidone+9-OH risperidone) were conducted by Integrated Analytical Solutions (Berkeley, Calif.) using an LCMS method validated to resolve risperidone and 9-OH risperidone in rat plasma with a lower limit of quantitation (LLQ) of 0.5 ng/mL for each analyte.
Plasma concentrations were normalized to initial body weight for each time point and plotted versus time.

[3] = general statement in the description; cited from earlier work
[4] = subcutaneous implant, FIGS. 7, 8

Compound: CCCCC(=O)O.Cc1nc2n(c(=O)c1CCN1CCC(c3noc4cc(F)ccc34)CC1)CCCC2 [risperidone pentanoate]
- initial period in which in vitro output is slightly above the therapeutic window ([1]; FIG. 4, upper limit 2.5 mg/day): 2 weeks
- period of constant, zero-order in vitro release of risperidone [1]: at least 60 days
- period of constant plasma level of active moiety [2, 4]: greater than 60 days

Compound: Cc1nc2n(c(=O)c1CCN1CCC(c3noc4cc(F)ccc34)CC1)CCCC2 [risperidone free base, risperidone, reference compound]
- solubility in water [3]: extremely insoluble in water

Compound: risperidone hexanoate
- period of in vitro release of risperidone within the therapeutic range ([1]; Example 6, devices 172, 180, 360 and 364, followed for 90-100 days, FIG. 5): ≥ 90 days
- period of in vitro release at a constant rate within the therapeutic range ([1]; Example 7, followed for 6 months, FIG. 6): 6 months
- period of constant, zero-order in vitro release of risperidone [1]: 30 to 90 days
- examination of the implant site ([2]; after 118 days of subcutaneous implantation): no evidence of inflammation or other adverse tissue responses
- plasma level of active moiety following removal of the device ([2]; below LLQ, 4 h and 24 h after implant removal at day 118): < 0.5 ng/mL
- plasma level of active moiety (risperidone plus 9-OH risperidone) ([2]; subcutaneous implant, 290-300 mg salt per device, normalized to initial body weight, constant level after 4 hour burst): about 20 ng/mL
- period of constant plasma level of active moiety [2, 4]: 118 days
- period of constant plasma level of active moiety ([2]; subcutaneous implant, until device removal, FIG. 7): about 4 months

Compound: Cc1nc2n(c(=O)c1CCN1CCC(c3noc4cc(F)ccc34)CC1)CCCC2.O=C(O)c1ccccc1 [risperidone benzoate, reference compound]
- in vitro output pattern relative to the therapeutic window ([1]; FIG. 2, upper limit 2.5 mg/day): rises to high levels before falling

Compound: dodecanoate
- solubility in water [3]: not appreciably more soluble than the free base form
